Assay results as given in patent publication US11787772B2, “Carboxylic diarythiazepineamines as mixed mu- and delta-opioid receptor agonists” (THE TRUSTEES OF COLUMBIA UNIVERSITY IN THE CITY OF NEW YORK, priority 2017, dated 2023).
Where a name gives a salt, the structure may show the parent alone. Read-outs that look alike come from different tables or passages of the source.

How the values were obtained:
[1] = molecular target: T1, human delta opioid receptor (DOR) (Homo sapiens, UniProt P41143); assay: BRET assay measuring G protein activation, agonist activity at human DOR; assay type: cell-based
T1 construct: expressed in transfected cells
T1 sequence (P41143 whole entry): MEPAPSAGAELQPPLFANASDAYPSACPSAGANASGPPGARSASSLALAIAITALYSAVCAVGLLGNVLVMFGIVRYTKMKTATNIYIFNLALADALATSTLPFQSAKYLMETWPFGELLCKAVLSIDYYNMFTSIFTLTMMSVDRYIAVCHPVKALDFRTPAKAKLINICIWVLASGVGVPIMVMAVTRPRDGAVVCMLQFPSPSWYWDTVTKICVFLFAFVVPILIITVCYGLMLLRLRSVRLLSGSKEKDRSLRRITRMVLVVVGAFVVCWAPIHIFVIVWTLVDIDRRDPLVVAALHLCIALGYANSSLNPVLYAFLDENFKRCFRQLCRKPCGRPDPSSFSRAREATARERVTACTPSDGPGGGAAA
Experimental: (§1) The diarylthiazepinamine carboxylic acids (9) were tested for agonist activity at the human mu opioid receptor (MOR) and delta opioid receptor (DOR) using bioluminescence resonance energy transfer (BRET) assays measuring G protein activation as previously described (Table 1) (Rives, M.-L. et al. 2012; Negri, A. et al. 2013).
(§2) Transfected cells were dissociated and re-suspended in phosphate-buffered saline (PBS). Approximately 200,000 cells/well were added to a black-framed, white well 96-well plate (#60050; Perkin Elmer; Waltham, MA). The microplate was centrifuged and the cells were re-suspended in PBS. Then 5 μM of the luciferase substrate coelenterazine H was added to each well for 5 minutes. Following coelenterazine H addition, ligands were added and the BRET signal was measured at 5 minutes on a PHERAstar FS plate reader. Quantification of the BRET signal required calculating the ratio of the light emitted by the energy acceptor, mVenus (510-540 nm), over the light emitted by the energy donor, RLuc8 (485 nm). […] Dose response curves were fit using a three-parameter logistics equation in GraphPad Prism 6.

[2] = molecular target: T2, human mu opioid receptor (MOR) (Homo sapiens, UniProt P35372); assay: BRET assay measuring G protein activation, agonist activity at human MOR; assay type: cell-based; settings: for MOR potency relative to analogs lacking substitution at position 2: dihalo-substituted core
T2 construct: expressed in transfected cells; host or cells: HEK-293T
T2 sequence (P35372 whole entry): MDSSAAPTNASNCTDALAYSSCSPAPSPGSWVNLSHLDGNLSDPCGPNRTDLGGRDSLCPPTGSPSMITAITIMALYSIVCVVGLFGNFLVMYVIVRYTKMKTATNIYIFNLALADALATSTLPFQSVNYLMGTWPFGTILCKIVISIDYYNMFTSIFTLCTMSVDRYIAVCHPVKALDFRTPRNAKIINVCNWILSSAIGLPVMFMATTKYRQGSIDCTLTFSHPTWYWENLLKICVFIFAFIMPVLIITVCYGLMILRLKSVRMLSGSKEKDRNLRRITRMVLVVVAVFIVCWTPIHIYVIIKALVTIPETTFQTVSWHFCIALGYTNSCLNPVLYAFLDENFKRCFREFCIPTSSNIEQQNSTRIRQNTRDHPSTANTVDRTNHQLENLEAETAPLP
Experimental: as §1
Human MOR cDNA was transfected alongside GααB with RLuc8 inserted at position 91 (GααB—RLuc8), Gβ1 (β1), and Gγ2 fused to the full-length mVenus at its N terminus (mVenus-γ2) into HEK-293T cells (5×10^6 cells/plate) in 10-cm dishes using PEI (Polysciences Inc.; Warrington, PA) in a 1:1 ratio diluted in Opti-MEM (Life Technologies Corp.; Grand Island, NY) to assay for G protein activation as described previously (Rives, M.-L. et al. 2012; Negri, A. et al. 2013). Cells were maintained in Dulbecco's Modified Eagle Medium (high glucose #11965; Life Technologies) supplemented with 10% FBS (Premium Select, Atlanta Biologicals; Atlanta, GA) and 100 U/mL penicillin and 100 μg/mL streptomycin (#15140, Life Technologies). After 24 hours the media was changed, and the experiment was performed 24 hours later (48 hours after transfection).
as §2
The additional diarylthiazepinamine carboxylic acids (9i, 9j, 9k, and 91) were tested for agonist activity at the human mu opioid receptor (MOR) using bioluminescence resonance energy transfer (BRET) assays measuring G protein activation (Table 2) as previously described (Rives, M.-L. et al. 2012; Negri, A. et al. 2013; Example 2 of the present application).

physchem = settings: 25 °C, thermodynamic from solid
Experimental: Test compounds (4 mg) were added to 200 μL of one of the tested aqueous solutions (hereinafter—buffer): 100 mM aqueous HCl (pH 1) or 100 mM Na-phosphate buffer (pH 7). The obtained suspensions/solutions with the theoretical concentration of 20 mg/mL were further allowed to equilibrate at 25° C. on a thermostatic orbital shaker for 24 hours and then centrifuged at 6000 rpm for 4 minutes and filtered through HTS filter plates using a vacuum manifold. In parallel, compound dilutions in 50% acetonitrile/HCl and 30% acetonitrile/Na-phosphate buffer mixes were prepared to theoretical concentrations of 0 mg/mL (blank), 0.1 mg/mL, 0.2 mg/mL, and 0.4 mg/mL in duplicates to generate calibration curves falling within the optimum UV absorption range. The filtrates of test compounds were diluted 100-fold with acetonitrile-buffer mixtures before measuring. The filtered supernatant test samples were transferred to 96-well plates and measured for absorbance in the 200-550 nm range with 5 nm step increment. The concentrations of compounds in supernatants were calculated using the measured absorbance and the previously determined calibration curve. Proper absorbance wavelengths for calculations were selected for each compound manually based on absorbance maxima (absolute absorbance unit values for the minimum and maximum concentration points within 0-2.5 OD range).

[3] = Solubility determination (Method A), neutral water; assay type: physicochemical; settings: for solubility at 24 h: distilled water, thermodynamic from solid, neutral water, 20° C., Method A (24 h stirring), average of 2 independent trials, read-out: Aqueous Solubility (mg/mL @ 20° C.)
Experimental: (§3) A quantity of the appropriate compound sufficient to saturate the resulting solution was added to distilled water (0.50 mL) and the mixture was stirred vigorously for 24 h at room temperature (20° C.). The mixture was then centrifuged for 3 min. at 21,000×g and the stir bar was carefully removed. The mixture was then centrifuged again for 5 min. at 21,000×g and the supernatant was carefully removed by syringe and passed through a […] syringe filter. An aliquot (300 μL) of the filtered supernatant was concentrated in vacuo and the mass of the residual solids determined in order to calculate the solubility.

male C57BL/6 mice = assay: Analgesic activity in hot plate assay; assay type: in vivo, mouse; settings: for ED50: Mus musculus, sc, hot plate 55° C., male C57BL/6 mice, tested at 15 post-injection
Experimental: Male C57BL/6 mice were timed for latency to jump on a hot-plate apparatus set to 55° C., using a 30 s cutoff to prevent tissue damage. Following a baseline test, animals were injected subcutaneously (s.c.) with escalating doses of drug and tested at […] (time of maximal effect). Dose-response curves were fit via nonlinear regression using GraphPad Prism (La Jolla, CA).

[4] = Solubility determination (Method B), neutral water; assay type: physicochemical; settings: distilled water, thermodynamic from solid; neutral water, 20° C., Method B (2 h orbital shaker); read-out: Aqueous Solubility (mg/mL @ 20° C.)
Experimental: as §3, with “agitated on an orbital shaker” for “was stirred vigorously”, “2” for “24”, “centrifuged” for “centrifuged for 3 min. at 21,000×g and the stir bar was carefully removed. The mixture was then centrifuged again”

[5] = BRET G protein activation, error ± SEM of 2 or more independent trials, read-out: Human DOR (EC50)
[6] = BRET G protein activation, HEK-293T cells, error ± SEM of 2 or more independent trials, read-out: Human MOR (EC50)

## Cc1ccc2c(c1)S(=O)(=O)N(C)c1ccccc1C2NCCCCCCC(=O)O (stereo not shown) [3-Methyl-substituted Analog, reference compound]
[1]
  EC50: > 10000 nM
[2]
  EC50: 890 nM

## CCOC(=O)CCCCCCNC1c2ccccc2N(C)S(=O)(=O)c2cc(SC)ccc21 (stereo not shown) [Compound 8c, Ethyl 7-((6-methyl-3-(methylthio)-5,5-dioxido-6,11-dihydrodibenzo[c,f][1,2]thiazepin-11-yl)amino)heptanoate]
[1]; BRET G protein activation
  Emax: 70%
  Human DOR agonist type (partial / full agonist): partial agonist
[1]; [5]
  EC50: 7000 nM
[2]; [6]
  EC50: 222 nM

## C#Cc1ccc2c(c1)S(=O)(=O)N(C)c1ccccc1C2NCCCCCCC(=O)O (stereo not shown) [Compound 9a, 7-((3-Ethynyl-6-methyl-5,5-dioxido-6,11-dihydrodibenzo [c,f][1,2]thiazepin-11-yl)amino)heptanoic acid]
[1]; [5]
  EC50: 5900 ± 300 nM
[2]; [6]
  EC50: 53.3 ± 18 nM

## CN1c2ccccc2C(NCCCCCCC(=O)O)c2cc(F)c(Br)cc2S1(=O)=O (stereo not shown) [Compound 9b, 7-((3-Bromo-2-fluoro-6-methyl-5,5-dioxido-6,1-dihydrodibenzo [c,f][1,2]thiazepin-11-yl)amino) heptanoic acid hydrochloride salt]
physchem; pH 1, simulated gastric fluid
  solubility: 1100 µg/mL
physchem; pH 7, aqueous buffer
  solubility: 840 µg/mL
[3]
  solubility at 24 h: 9.8 mg/mL
[3]; neutral unbuffered water
  Solubility relative to monohalo counterpart bromotianeptine: 2-3 fold
[1]
  EC50: 11500 ± 2200 nM
[2]
  EC50: 83.1 ± 5.7 nM
  MOR potency relative to analogs lacking substitution at position 2: equipotent or more potent
Male C57BL/6 mice
  ED50: 5.1 mg/kg
Male C57BL/6 mice; much higher potency than tianeptine
  Analgesic activity in the mouse hot plate assay: potent analgesics

## CSc1ccc2c(c1)S(=O)(=O)N(C)c1ccccc1C2NCCCCCCC(=O)O (stereo not shown) [Compound 9c, 7-((6-Methyl-3-(methylthio)-5,5-dioxido-6,1l-dihydrodibenzo [c,f][1,2]thiazepin-11-yl)amino)heptanoic acid]
[1]; BRET G protein activation
  Emax: 51%
  Human DOR Emax: 51%
  Human DOR agonist type (partial / full agonist): partial agonist
[1]; [5]
  EC50: 2060 nM
[1]; FIG. 1
  DOR Emax relative to the control agonist DPDPE: lesser Emax than the control agonist DPDPE
[2]; [6]
  EC50: 41.8 nM

## CN1c2ccccc2C(NCCCCCCCC(=O)O)c2ccc(Br)cc2S1(=O)=O (stereo not shown) [Compound 9d, 8-((3-Bromo-6-methyl-5,5-dioxido-6,11-dihydrodibenzo [c,f][1,2]thiazepin-11-yl)amino) octanoic acid hydrochloride salt]
[1]
  EC50: 1700 ± 40 nM
[2]
  EC50: 56 ± 24 nM

## CN1c2ccccc2C(NCCCCCCCCC(=O)O)c2ccc(I)cc2S1(=O)=O (stereo not shown) [Compound 9f, 9-((3-Iodo-6-methyl-5,5-dioxido-6,11-dihydrodibenzo [c,f][1,2]thiazepin-11-yl)amino) nonanoic acid hydrochloride salt]
[1]
  EC50: 530 ± 340 nM
[2]
  EC50: 22 ± 14 nM

## CN1c2ccccc2C(NCCCCCCCCCCC(=O)O)c2ccc(I)cc2S1(=O)=O (stereo not shown) [Compound 9h, 11-((3-Iodo-6-methyl-5,5-dioxido-6,11-dihydrodibenzo [c,f][1,2]thiazepin-11-yl)amino)undecanoic acid hydrochloride salt]
[1]
  EC50: 700 ± 305 nM
[2]
  EC50: 110 ± 29 nM

## CN1c2ccccc2C(NCCCCCCC(=O)O)c2cc(Cl)c(Cl)cc2S1(=O)=O.Cl (stereo not shown) [Compound 9i, 7-((2,3-dichloro-6-methyl-5,5-dioxido-6,11-dihydrodibenzo [c,f][1,2]thiazepin-11-yl)amino)heptanoic acid hydrochloride salt]
[2]
  EC50: 172 nM
  MOR potency relative to analogs lacking substitution at position 2: equipotent or more potent

## CN1c2ccccc2C(NCCCCCCC(=O)O)c2cc(F)c(Cl)cc2S1(=O)=O.Cl (stereo not shown) [Compound 9j, 7-((3-chloro-2-fluoro-6-methyl-5,5-dioxido-6,11-dihydrodibenzo [c,f][1,2]thiazepin-11-yl)amino)heptanoic acid hydrochloride salt]
physchem; pH 1, simulated gastric fluid
  solubility: 5300 µg/mL
physchem; pH 7, aqueous buffer
  solubility: 70 µg/mL
[2]
  EC50: 129 nM
  MOR potency relative to analogs lacking substitution at position 2: equipotent or more potent

## CN1c2ccccc2C(NCCCCC(=O)O)c2cc(F)c(Br)cc2S1(=O)=O.Cl (stereo not shown) [Compound 9l, 5-((3-bromo-2-fluoro-6-methyl-5,5-dioxido-6,11-dihydrodibenzo [c,f][1,2]thiazepin-11-yl)amino)pentanoic acid hydrochloride salt]
[2]
  EC50: 45 nM
  MOR potency relative to analogs lacking substitution at position 2: equipotent or more potent

## CCOC(=O)CCCCCCNC1c2ccccc2N(C)S(=O)(=O)c2ccc(Cl)cc21 (stereo not shown) [Compound 15a, reference compound]
[2]
  EC50: 4150 ± 930 nM

## CCOC(=O)CCCCCCNC1c2ccccc2N(C)S(=O)(=O)c2ccccc21 (stereo not shown) [Compound 15c, reference compound]
[2]
  EC50: 156 ± 84.7 nM

## COCCCNC1c2ccccc2N(C)S(=O)(=O)c2ccc(Cl)cc21 (stereo not shown) [Compound 16a, reference compound]
[2]; [6]
  EC50: 16900 ± 5220 nM

## COCCCNC1c2ccccc2N(C)S(=O)(=O)c2cc(Cl)ccc21 (stereo not shown) [Compound 16b, reference compound]
[2]; [6]
  EC50: 264 ± 85.3 nM

## COCCCNC1c2ccccc2N(C)S(=O)(=O)c2ccccc21 (stereo not shown) [Compound 16c, reference compound]
[2]; [6]
  EC50: 2010 ± 700 nM

## CN1c2ccccc2C(NCCCCCCC(=O)[O-])c2ccc(Cl)cc2S1(=O)=O.[Na+] (stereo not shown) [Tianeptine (Na salt), Tianeptine, reference compound]
Male C57BL/6 mice
  ED50: 15 mg/kg

## CN1c2ccccc2C(NCCCCCCC(=O)O)c2ccc(Br)cc2S1(=O)=O.Cl (stereo not shown) [bromotianeptine, reference compound]
physchem; pH 1, simulated gastric fluid
  solubility: < 100 µg/mL
physchem; pH 7, aqueous buffer
  solubility: 620 µg/mL
[3]
  solubility at 24 h: 4.5 mg/mL

## CN1c2ccccc2C(NCCCCCCC(=O)O)c2ccc(I)cc2S1(=O)=O.Cl (stereo not shown) [iodotianeptine, reference compound]
physchem; pH 1, simulated gastric fluid
  solubility: < 100 µg/mL
physchem; pH 7, aqueous buffer
  solubility: 150 µg/mL
[4]
  solubility at 2 h: 2.3 mg/mL
